# ChEMBL document CHEMBL4145553, “Design, synthesis, and biological evaluation of novel amide and hydrazide based thioether analogs targeting Histone deacteylase (HDAC) enzymes” (Eur J Med Chem, 2018)
# Columns and labels:
# Type in all cases: functional
# SW-620 = assay: Growth inhibition of human SW620 cells incubated for 48 hrs by sulforhodamine B assay; settings: SW-620, 48 h
# BT-549 = assay: Growth inhibition of human BT549 cells assessed as cell growth at 10^-7 M incubated for 48 hrs by sulforhodamine B assay relative to control; settings: BT-549, 48 h, read-out: Activity
# DU-145 [1] = assay: Growth inhibition of human DU145 cells assessed as cell growth at 10^-6 M incubated for 48 hrs by sulforhodamine B assay relative to control; settings: DU-145, 48 h, read-out: Activity
# A498 = assay: Growth inhibition of human A498 cells assessed as cell growth at 10^-8 M incubated for 48 hrs by sulforhodamine B assay relative to control; settings: A498, 48 h, read-out: Activity
# UACC-62 = assay: Growth inhibition of human UACC62 cells assessed as cell growth at 10^-8 M incubated for 48 hrs by sulforhodamine B assay relative to control; settings: UACC-62, 48 h, read-out: Activity
# A549 [2] = assay: Growth inhibition of human A549/ATCC cells incubated for 48 hrs by sulforhodamine B assay; settings: A549, 48 h
# MCF7 = assay: Growth inhibition of human MCF7 cells assessed as cell growth at 10^-8 M incubated for 48 hrs by sulforhodamine B assay relative to control; settings: MCF7, 48 h, read-out: Activity
# A549 [3] = assay: Growth inhibition of human A549/ATCC cells assessed as cell growth at 10^-7 M incubated for 48 hrs by sulforhodamine B assay relative to control; settings: A549, 48 h, read-out: Activity
# Malme-3M [4] = assay: Growth inhibition of human MALME-3M cells assessed as cell growth at 10^-5 M incubated for 48 hrs by sulforhodamine B assay relative to control; settings: read-out: Activity
# RXF 393 = assay: Growth inhibition of human RXF393 cells incubated for 48 hrs by sulforhodamine B assay; settings: RXF 393, 48 h
# DU-145 [5] = assay: Growth inhibition of human DU145 cells assessed as cell growth at 10^-8 M incubated for 48 hrs by sulforhodamine B assay relative to control; settings: DU-145, 48 h, read-out: Activity
# SK-OV-3 = assay: Growth inhibition of human SKOV3 cells assessed as cell growth at 10^-4 M incubated for 48 hrs by sulforhodamine B assay relative to control; settings: SK-OV-3, 48 h, read-out: Activity
# DU-145 [6] = assay: Growth inhibition of human DU145 cells assessed as cell growth at 10^-4 M incubated for 48 hrs by sulforhodamine B assay relative to control; settings: DU-145, 48 h, read-out: Activity
# 786-0 = assay: Growth inhibition of human 786-0 cells assessed as cell growth at 10^-6 M incubated for 48 hrs by sulforhodamine B assay relative to control; settings: 786-0, 48 h, read-out: Activity
# HOP-62 = assay: Growth inhibition of human HOP62 cells assessed as cell growth at 10^-5 M incubated for 48 hrs by sulforhodamine B assay relative to control; settings: HOP-62, 48 h, read-out: Activity
# Hs-578T = assay: Growth inhibition of human Hs 578T cells assessed as cell growth at 10^-8 M incubated for 48 hrs by sulforhodamine B assay relative to control; settings: read-out: Activity
# MDA-MB-435 = assay: Cell cycle arrest in human MDA-MB-435 cells assessed as accumulation at S-phase by propidium iodide staining based flow cytometry (reference value: 26.46%)
# NCI-H226 [7] = assay: Growth inhibition of human NCI-H226 cells incubated for 48 hrs by sulforhodamine B assay; settings: NCI-H226, 48 h
# HT-29 = assay: Growth inhibition of human HT-29 cells assessed as cell growth at 10^-6 M incubated for 48 hrs by sulforhodamine B assay relative to control; settings: HT-29, 48 h, read-out: Activity
# COLO 205 = assay: Growth inhibition of human COLO205 cells assessed as cell growth at 10^-8 M incubated for 48 hrs by sulforhodamine B assay relative to control; settings: COLO 205, 48 h, read-out: Activity
# NCI-H226 [8] = assay: Growth inhibition of human NCI-H226 cells assessed as cell growth at 10^-7 M incubated for 48 hrs by sulforhodamine B assay relative to control; settings: NCI-H226, 48 h, read-out: Activity
# UO-31 = assay: Growth inhibition of human UO31 cells assessed as cell growth at 10^-4 M incubated for 48 hrs by sulforhodamine B assay relative to control; settings: UO-31, 48 h, read-out: Activity
# SF-295 = assay: Growth inhibition of human SF295 cells assessed as cell growth at 10^-4 M incubated for 48 hrs by sulforhodamine B assay relative to control; settings: SF-295, 48 h, read-out: Activity
# K562 = assay: Growth inhibition of human K562 cells assessed as cell growth at 10^-4 M incubated for 48 hrs by sulforhodamine B assay relative to control; settings: K562, 48 h, read-out: Activity
# SNB-19 = assay: Growth inhibition of human SNB19 cells assessed as cell growth at 10^-7 M incubated for 48 hrs by sulforhodamine B assay relative to control; settings: SNB-19, 48 h, read-out: Activity
# SF-539 = assay: Growth inhibition of human SF539 cells assessed as cell growth at 10^-7 M incubated for 48 hrs by sulforhodamine B assay relative to control; settings: SF-539, 48 h, read-out: Activity
# OVCAR-8 = assay: Growth inhibition of human OVCAR8 cells assessed as cell growth at 10^-6 M incubated for 48 hrs by sulforhodamine B assay relative to control; settings: OVCAR-8, 48 h, read-out: Activity
# ACHN = assay: Growth inhibition of human ACHN cells assessed as cell growth at 10^-8 M incubated for 48 hrs by sulforhodamine B assay relative to control; settings: read-out: Activity
# Malme-3M [9] = assay: Growth inhibition of human MALME-3M cells assessed as cell growth at 10^-8 M incubated for 48 hrs by sulforhodamine B assay relative to control; settings: read-out: Activity
# HL-60 = assay: Induction of apoptosis in human HL60 cells assessed as live cells by propidium iodide/Annexin V staining based flow cytometry (reference value: 96.94%)
# MDA-MB-231 = assay: Growth inhibition of human MDA-MB-231 cells assessed as cell growth at 10^-4 M incubated for 48 hrs by sulforhodamine B assay relative to control; settings: MDA-MB-231, 48 h, read-out: Activity
# [10] = read-out: LC50 (the source's name)
# [11] = read-out: pLC50 (the source's name) (converted)
smiles,measurement,setting,value
CCS/C(Nc1ccccc1)=C(\C#N)C(=O)Nc1ccc(OC)cc1,GI50,SW-620; read-out: GI50,2.55 µM
same,CC50,SW-620; [10],> 100 µM
same,TGI,SW-620; read-out: TGI,> 100 µM
same,GI50,SW-620; read-out: pGI50 (converted),2.57 µM
same,CC50,SW-620; [11],> 100 µM
same,TGI,SW-620; read-out: pTGI,> 100 µM
same,growth at 0.1 µM,BT-549,89%
same,growth at 1 µM,DU-145 [1],93%
same,growth at 0.01 µM,A498,91%
same,growth at 0.01 µM,UACC-62,93%
same,GI50,A549 [2]; read-out: GI50,5.91 µM
same,CC50,A549 [2]; [10],> 100 µM
same,TGI,A549 [2]; read-out: TGI,> 100 µM
same,GI50,A549 [2]; read-out: pGI50 (converted),5.89 µM
same,CC50,A549 [2]; [11],> 100 µM
same,TGI,A549 [2]; read-out: pTGI,> 100 µM
same,growth at 0.01 µM,MCF7,98%
same,growth at 0.1 µM,A549 [3],94%
same,growth at 10 µM,Malme-3M [4],61%
same,GI50,RXF 393; read-out: GI50,2.24 µM
same,CC50,RXF 393; [10],> 100 µM
same,TGI,RXF 393; read-out: TGI,7.86 µM
same,GI50,RXF 393; read-out: pGI50 (converted),2.24 µM
same,CC50,RXF 393; [11],> 100 µM
same,TGI,RXF 393; read-out: pTGI (converted),7.94 µM
same,growth at 0.01 µM,DU-145 [5],101%
same,growth at 100 µM,SK-OV-3,-4%
same,growth at 100 µM,DU-145 [6],-6%
same,growth at 1 µM,786-0,83%
same,growth at 10 µM,HOP-62,41%
same,growth at 0.01 µM,Hs-578T,97%
same,Activity,MDA-MB-435,19.26%
same,GI50,NCI-H226 [7]; read-out: GI50,5.45 µM
same,CC50,NCI-H226 [7]; [10],> 100 µM
same,TGI,NCI-H226 [7]; read-out: TGI,50.7 µM
same,GI50,NCI-H226 [7]; read-out: pGI50 (converted),5.5 µM
same,CC50,NCI-H226 [7]; [11],> 100 µM
same,TGI,NCI-H226 [7]; read-out: pTGI (converted),50.1 µM
same,growth at 1 µM,HT-29,99%
same,growth at 0.01 µM,COLO 205,111%
same,growth at 0.1 µM,NCI-H226 [8],86%
same,growth at 100 µM,UO-31,16%
same,growth at 100 µM,SF-295,6%
same,growth at 100 µM,K562,10%
same,growth at 0.1 µM,SNB-19,95%
same,growth at 0.1 µM,SF-539,92%
same,growth at 1 µM,OVCAR-8,98%
same,growth at 0.01 µM,ACHN,101%
same,growth at 0.01 µM,Malme-3M [9],98%
same,Activity,HL-60,84%
same,growth at 100 µM,MDA-MB-231,-18%
CCS/C(Nc1ccccc1)=C(\C#N)C(=O)N/N=C\c1ccc(Cl)cc1Cl,GI50,SW-620; read-out: GI50,4.65 µM
same,CC50,SW-620; [10],> 100 µM
same,TGI,SW-620; read-out: TGI,> 100 µM
same,GI50,SW-620; read-out: pGI50 (converted),4.68 µM
same,CC50,SW-620; [11],> 100 µM
same,TGI,SW-620; read-out: pTGI,> 100 µM
same,growth at 0.1 µM,BT-549,87%
same,growth at 1 µM,DU-145 [1],97%
same,growth at 0.01 µM,A498,91%
same,growth at 0.01 µM,UACC-62,92%
same,GI50,A549 [2]; read-out: GI50,4.63 µM
same,CC50,A549 [2]; [10],> 100 µM
same,TGI,A549 [2]; read-out: TGI,> 100 µM
same,GI50,A549 [2]; read-out: pGI50 (converted),4.68 µM
same,CC50,A549 [2]; [11],> 100 µM
same,TGI,A549 [2]; read-out: pTGI,> 100 µM
same,growth at 0.01 µM,MCF7,97%
same,growth at 0.1 µM,A549 [3],92%
same,growth at 10 µM,Malme-3M [4],49%
same,GI50,RXF 393; read-out: GI50,2.06 µM
same,CC50,RXF 393; [10],> 100 µM
same,TGI,RXF 393; read-out: TGI,8.65 µM
same,GI50,RXF 393; read-out: pGI50 (converted),2.04 µM
same,CC50,RXF 393; [11],> 100 µM
same,TGI,RXF 393; read-out: pTGI (converted),8.71 µM
same,growth at 0.01 µM,DU-145 [5],105%
same,growth at 100 µM,SK-OV-3,12%
same,growth at 100 µM,DU-145 [6],8%
same,growth at 1 µM,786-0,83%
same,growth at 10 µM,HOP-62,29%
same,growth at 0.01 µM,Hs-578T,96%
same,Activity,MDA-MB-435,19.16%
same,GI50,NCI-H226 [7]; read-out: GI50,4 µM
same,CC50,NCI-H226 [7]; [10],> 100 µM
same,TGI,NCI-H226 [7]; read-out: TGI,> 100 µM
same,GI50,NCI-H226 [7]; read-out: pGI50 (converted),3.98 µM
same,CC50,NCI-H226 [7]; [11],> 100 µM
same,TGI,NCI-H226 [7]; read-out: pTGI (converted),> 100 µM
same,growth at 1 µM,HT-29,101%
same,growth at 0.01 µM,COLO 205,101%
same,growth at 0.1 µM,NCI-H226 [8],82%
same,growth at 100 µM,UO-31,41%
same,growth at 100 µM,SF-295,3%
same,growth at 100 µM,K562,7%
same,growth at 0.1 µM,SNB-19,94%
same,growth at 0.1 µM,SF-539,94%
same,growth at 1 µM,OVCAR-8,99%
same,growth at 0.01 µM,ACHN,102%
same,growth at 0.01 µM,Malme-3M [9],103%
same,Activity,HL-60,79.88%
same,growth at 100 µM,MDA-MB-231,9%
